Data on 14 compounds can be found in ChEMBL document CHEMBL1201862, “PubChem BioAssay data set” (2004).

Test systems include NCI-H522; SN12C; M19-MEL; MOLT-4; A549; NCI-H460; HCC 2998; EKVX; HOP-62; TK-10; SR; OVCAR-4; SF-268; OVCAR-3; OVCAR-5.
Holding throughout (assay): NCI-60 cell line screen, 48 h

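Assay format: 96-well plates, 48-hour exposure. GI50 = concentration required for 50% inhibition of growth.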 Activity calls are given as the source filed them. Rule as the data show it: active = GI50 up to about 1.1 µM and inactive = higher. A value given as a limit tells only on which side of the number the result lay.

Take `COc1cccc(-c2cc(O)c3cc(OC)c(OC)cc3n2)c1`: the GI50 with NCI-H522 was 19.8 µM (inactive); in the assay on SN12C, 68.7 µM (inactive); in the assay on M19-MEL, 59.8 µM (inactive); in the assay with MOLT-4, 40.6 µM (inactive); in the assay on A549, 47.4 µM (inactive); in the assay on NCI-H460, 30.3 µM (inactive). The GI50 was 87.1 µM (inactive) in the assay on HCC 2998; 97.7 µM (inactive) with EKVX; 42.1 µM (inactive) in the assay with HOP-62; 51.6 µM (inactive) in the assay on TK-10; 56.1 µM (inactive) with SR.
Take `CC1=CC(=O)NP(=O)(Oc2ccc(Cl)cc2)N1` (stereo unspecified): the GI50 in the assay on OVCAR-4, in the assay with NCI-H522, with SN12C, in the assay on M19-MEL, in the assay on MOLT-4 and in the assay on A549 was > 100 µM (inactive) in each case. In addition, the GI50 in the assay with NCI-H460, in the assay with EKVX, in the assay on HOP-62, in the assay with TK-10, in the assay with SF-268 and in the assay on OVCAR-3 was > 100 µM (inactive) each time. Further, the GI50 with SR and with OVCAR-5 was > 100 µM (inactive) each time.
As to `C=C1Cc2cc(OC)c(OC)c(OC)c2-c2ccc(SC)c(=O)cc21`, the GI50 with OVCAR-4 was 4.26 µM (inactive); in the assay on NCI-H522 it was < 0.01 µM (active); with SN12C, < 0.01 µM (active); in the assay with M19-MEL, < 0.01 µM (active); in the assay with MOLT-4 it was < 0.01 µM (active); in the assay with A549, < 0.01 µM (active). Also, the GI50 with NCI-H460 is < 0.01 µM (active); in the assay with HCC 2998 it was < 0.01 µM (active); with EKVX, 1.55 µM (inactive); in the assay on HOP-62 it was < 0.01 µM (active); with TK-10 it was 0.916 µM (active); with SF-268 it was < 0.01 µM (active). In addition, the GI50 with OVCAR-3 was < 0.01 µM (active); in the assay on SR, < 0.01 µM (active); with OVCAR-5, 0.378 µM (active).
As to `C/C(=N\N(c1ccccc1)c1ccccc1)c1c(O)cc(C)oc1=O`, the GI50 with OVCAR-4 was 45.1 µM (inactive); in the assay with NCI-H522, > 100 µM (inactive); in the assay on SN12C it was > 100 µM (inactive); in the assay with M19-MEL, 81.7 µM (inactive); with MOLT-4, 54.2 µM (inactive); in the assay on A549, 75 µM (inactive). For the same compound, the GI50 was 46.5 µM (inactive) with NCI-H460; > 100 µM (inactive) in the assay on HCC 2998; > 100 µM (inactive) with EKVX; > 100 µM (inactive) with HOP-62; > 100 µM (inactive) in the assay on TK-10; > 100 µM (inactive) in the assay with SF-268. The GI50 with SR was 56.9 µM (inactive).
For the compound `NC(=O)NC1C(C(N)=O)N(Cc2ccccc2)C(=O)N1Cc1ccccc1` (stereo unspecified), the GI50 in the assay with OVCAR-4, in the assay with NCI-H522, in the assay with M19-MEL, with MOLT-4, in the assay with A549 and with NCI-H460 was > 100 µM (inactive) each time. The GI50 in the assay on HCC 2998, in the assay with EKVX, in the assay with HOP-62, in the assay with TK-10, in the assay with SF-268 and in the assay with OVCAR-3 was > 100 µM (inactive) in each case. The GI50 with SR is > 100 µM (inactive); in the assay with OVCAR-5, 40.7 µM (inactive).
Turning to `O=[N+]([O-])c1cccc(C2SCc3nc4ccccc4n32)c1` (stereo unspecified), the GI50 with OVCAR-4 is 63.8 µM (inactive); in the assay with SN12C, 97.3 µM (inactive); with M19-MEL, > 100 µM (inactive); in the assay with MOLT-4, 59.4 µM (inactive); in the assay on A549 it was > 100 µM (inactive); in the assay with NCI-H460, > 100 µM (inactive). For the same compound, the GI50 with EKVX was 66.2 µM (inactive); with HOP-62, > 100 µM (inactive); with TK-10, > 100 µM (inactive); with SF-268, > 100 µM (inactive); in the assay with SR it was 82.4 µM (inactive); in the assay with OVCAR-5, 39.3 µM (inactive).
With `N/N=C1\C(=O)N(Cc2ccccc2)C(=O)C1C(=O)NCc1ccccc1` (stereo unspecified), the GI50 in the assay with OVCAR-4, in the assay with NCI-H522, in the assay on SN12C, in the assay on M19-MEL, in the assay with MOLT-4 and in the assay on A549 was > 100 µM (inactive) each time. Further, the GI50 in the assay on NCI-H460, with HCC 2998, in the assay with EKVX, in the assay on HOP-62, with TK-10 and with SF-268 was > 100 µM (inactive) throughout. The GI50 with OVCAR-3, in the assay with SR and with OVCAR-5 was > 100 µM (inactive) throughout.
Take `Cc1cc(C(=O)NCCN(C)C)c2nc3ccccc3nc2c1`: the GI50 in the assay on OVCAR-4 was 4.75 µM (inactive); with NCI-H522 it was 16.6 µM (inactive); with SN12C, 3.45 µM (inactive); in the assay with M19-MEL it was 3.13 µM (inactive); with MOLT-4 it was 0.128 µM (active); in the assay with A549 it was 3.88 µM (inactive). The GI50 in the assay on HCC 2998 is 6.38 µM (inactive); with EKVX it was 8.26 µM (inactive); in the assay with HOP-62, 2.17 µM (inactive); in the assay with TK-10 it was 4.42 µM (inactive); in the assay on OVCAR-3 it was 5.71 µM (inactive); in the assay on SR, 0.453 µM (active). For the same compound, in the assay with OVCAR-5, the GI50 is 7.43 µM (inactive).
As for `N#CC(NNC(=O)Cc1ccccc1)c1ccc([N+](=O)[O-])cc1` (stereo unspecified), the GI50 in the assay on OVCAR-4, in the assay on NCI-H522, in the assay with SN12C, in the assay on M19-MEL, in the assay with MOLT-4 and in the assay on A549 was > 100 µM (inactive) throughout. The GI50 in the assay with NCI-H460, in the assay with HOP-62, in the assay on TK-10, in the assay on SF-268, in the assay on SR and with OVCAR-5 was > 100 µM (inactive) throughout.
For `CCCCCCCCCCCC(=O)OCC1OC(n2cc(F)c(=O)[nH]c2=O)C(NC(=O)OCc2ccccc2)C(O)C1O` (stereo unspecified), the GI50 was 23.8 µM (inactive) with OVCAR-4; 14.5 µM (inactive) in the assay on NCI-H522; 18.5 µM (inactive) in the assay on SN12C; 20 µM (inactive) in the assay on M19-MEL; 21.2 µM (inactive) in the assay on MOLT-4; 20.8 µM (inactive) in the assay with A549. Moreover, the GI50 in the assay on NCI-H460 is 17.6 µM (inactive); with HCC 2998 it was 18.4 µM (inactive); in the assay on EKVX it was 30.5 µM (inactive); in the assay on HOP-62, 44.9 µM (inactive); in the assay with TK-10, 38.8 µM (inactive); in the assay with SF-268, 39.5 µM (inactive). For the same compound, the GI50 with OVCAR-3 was 25 µM (inactive); in the assay on SR, 19.1 µM (inactive).
Regarding `Cc1cccc(C(=O)O)c1C(=O)c1cccc2ccccc12`, the GI50 in the assay on OVCAR-4 was > 100 µM (inactive); in the assay with NCI-H522 it was > 100 µM (inactive); with SN12C, > 100 µM (inactive); with M19-MEL, > 100 µM (inactive); with MOLT-4 it was 33.1 µM (inactive); with A549 it was > 100 µM (inactive). The GI50 in the assay with NCI-H460, with HCC 2998, with EKVX, with HOP-62, in the assay with TK-10 and in the assay on SF-268 was > 100 µM (inactive) in each case. Besides, the GI50 with OVCAR-3, with SR and in the assay with OVCAR-5 was > 100 µM (inactive) in each case.
In the case of `CC(C)C(/C=C/c1ccccc1)=N\NC(=O)N/N=C(/C=C/c1ccccc1)C(C)C`, the GI50 in the assay with OVCAR-4 was 35 µM (inactive); in the assay on NCI-H522, 17.1 µM (inactive); with SN12C, 17.3 µM (inactive); with M19-MEL, 21 µM (inactive); in the assay on MOLT-4, 16.4 µM (inactive); with A549, 23.1 µM (inactive). Further, the GI50 in the assay on NCI-H460 is 14.4 µM (inactive); with HCC 2998 it was 16 µM (inactive); with EKVX, 8.36 µM (inactive); in the assay with HOP-62, 40.6 µM (inactive); with TK-10 it was 33.8 µM (inactive); with SF-268, 48 µM (inactive). For the same compound, the GI50 with SR is 20.8 µM (inactive); in the assay on OVCAR-5, 38.2 µM (inactive).
As to `O=C(CN(Cc1ccccc1)Cc1ccccc1)N1CCc2c([nH]c3ccccc23)C1c1cccnc1` (stereo unspecified), the GI50 in the assay on OVCAR-4 was 3.99 µM (inactive); in the assay with NCI-H522 it was 4.8 µM (inactive); in the assay with SN12C it was 2.71 µM (inactive); in the assay on M19-MEL it was 5.98 µM (inactive); in the assay on MOLT-4, 2.26 µM (inactive); with A549 it was 4.59 µM (inactive). In addition, the GI50 in the assay with NCI-H460 was 5.58 µM (inactive); with HCC 2998, 13.2 µM (inactive); in the assay on EKVX, 7.71 µM (inactive); in the assay with HOP-62, 39 µM (inactive); in the assay with TK-10 it was 27.5 µM (inactive); with SF-268, 9.51 µM (inactive). Besides, the results for the GI50 with OVCAR-3, in the assay with SR and in the assay with OVCAR-5 were 5.82 µM (inactive), 5.28 µM (inactive) and 7.38 µM (inactive), respectively.
Take `CC(C)(C)C(=O)O[C@@H]1COC2C(O)COC21` (stereo partly specified): the GI50 in the assay on OVCAR-4 is > 100 µM (inactive); in the assay with NCI-H522, > 100 µM (inactive); with SN12C it was > 100 µM (inactive); with M19-MEL, > 100 µM (inactive); with MOLT-4, 19.7 µM (inactive); in the assay on A549, > 100 µM (inactive). Also, the GI50 in the assay on NCI-H460, in the assay on HCC 2998, with HOP-62, in the assay with TK-10, in the assay on SF-268 and with OVCAR-3 was > 100 µM (inactive) each time. Moreover, the GI50 in the assay on SR and in the assay on OVCAR-5 was > 100 µM (inactive) each time.
